In assay [1] the test system is Phytophthora infestans. Nature of the assay: microbe, parasite or virus in culture. It counts as cell-based. The note with it: in Secale cereale, 168 h, read-out: control compared to the untreated check.
Assay [2] relates to Phytophthora infestans. Nature of the assay: whole plant or invertebrate. In kind it is in vivo, Phytophthora infestans on tomato plants. The note with it: in Solanum lycopersicum, 24 h, read-out: control compared to the untreated check.

In the case of `O=C(COc1ccc(C(F)(F)F)nn1)N1CCC(c2nc(C3=NOC(c4c(Cl)cccc4Cl)C3)cs2)CC1` (stereo not shown) [Compound 38, 1-(4-(4-(5-(2,6-dichlorophenyl)-4,5-dihydroisoxazol-3-yl)thiazol-2-yl)piperidin-1-yl)-2-((6-(trifluoromethyl)pyridazin-3-yl)oxy)ethan-1-one], in assay [1], the inhibition of growth at 30 ppm is at least 70%. In addition, the pest or weed control at 50 ppm in assay [2] is at least 70%. As for `O=C(COc1nccnc1C(F)(F)F)N1CCC(c2nc(C3=NOC(c4c(F)cccc4F)C3)cs2)CC1` (stereo not shown) [Compound 5, 1-(4-(4-(5-(2,6-difluorophenyl)-4,5-dihydroisoxazol-3-yl)thiazol-2-yl)piperidin-1-yl)-2-((3-(trifluoromethyl)pyrazin-2-yl)oxy)ethan-1-one], the inhibition of growth at 30 ppm in assay [1] is at least 70%. The pest or weed control at 50 ppm in assay [2] is at least 70%. Turning to `CS(=O)(=O)Oc1cccc(Cl)c1C1CC(c2csc(C3CCN(C(=O)COc4cc(C(F)(F)F)ncn4)CC3)n2)=NO1` (stereo not shown) [Compound 7, 3-chloro-2-(3-(2-(1-(2-((6-(trifluoromethyl)pyrimidin-4-yl)oxy)acetyl)piperidin-4-yl)thiazol-4-yl)-4,5-dihydroisoxazol-5-yl)phenyl methanesulfonate], the inhibition of growth at 30 ppm in assay [1] was at least 70%. In addition, the pest or weed control at 50 ppm in assay [2] was at least 70%. On to `COc1nccnc1OCC(=O)N1CCC(c2nc(C3=NOC(c4c(F)cccc4Cl)C3)cs2)CC1` (stereo not shown) [Compound 25, 1-(4-(4-(5-(2-chloro-6-fluorophenyl)-4,5-dihydroisoxazol-3-yl)thiazol-2-yl)piperidin-1-yl)-2-((3-methoxypyrazin-2-yl)oxy)ethan-1-one], for which the inhibition of growth at 30 ppm in assay [1] was at least 70%. For the same molecule, in assay [2], the pest or weed control at 50 ppm was at least 70%. For `O=C(COc1ccc(C(F)(F)F)nn1)N1CCC(c2nc(C3=NOC(c4c(Cl)cc(Cl)cc4Cl)C3)cs2)CC1` (stereo not shown) [Compound 37, 1-(4-(4-(5-(2,4,6-trichlorophenyl)-4,5-dihydroisoxazol-3-yl)thiazol-2-yl)piperidin-1-yl)-2-((6-(trifluoromethyl)pyridazin-3-yl)oxy)ethan-1-one], the inhibition of growth at 30 ppm in assay [1] is at least 70%. For the same molecule, in assay [2], the pest or weed control at 50 ppm was at least 70%.

Regarding `COc1nccnc1OCC(=O)N1CCC(c2nc(C3=NOC(c4c(Cl)cccc4OS(C)(=O)=O)C3)cs2)CC1` (stereo not shown) [Compound 29, 3-chloro-2-(3-(2-(1-(2-((3-methoxypyrazin-2-yl)oxy)acetyl)piperidin-4-yl)thiazol-4-yl)-4,5-dihydroisoxazol-5-yl)phenyl methanesulfonate], in assay [1], the inhibition of growth at 30 ppm was at least 70%. In assay [2], the pest or weed control at 50 ppm is at least 70%. For `CS(=O)(=O)Oc1cccc(Cl)c1C1CC(c2csc(C3CCN(C(=O)COc4nccnc4C(F)(F)F)CC3)n2)=NO1` (stereo not shown) [Compound 6, 3-chloro-2-(3-(2-(1-(2-((3-(trifluoromethyl)pyrazin-2-yl)oxy)acetyl)piperidin-4-yl)thiazol-4-yl)-4,5-dihydroisoxazol-5-yl)phenyl methanesulfonate], the inhibition of growth at 30 ppm in assay [1] was at least 70%. Also, the pest or weed control at 50 ppm in assay [2] is at least 70%. Consider `COc1nccnc1OCC(=O)N1CCC(c2nc(C3=NOC(c4c(F)cccc4F)C3)cs2)CC1` (stereo not shown) [Compound 27, 1-(4-(4-(5-(2,6-difluorophenyl)-4,5-dihydroisoxazol-3-yl)thiazol-2-yl)piperidin-1-yl)-2-((3-methoxypyrazin-2-yl)oxy)ethan-1-one], for which, in assay [1], the inhibition of growth at 30 ppm was at least 70%. Also, in assay [2], the pest or weed control at 50 ppm was at least 70%. Regarding `COc1ccnc(OCC(=O)N2CCC(c3nc(C4=NOC(c5c(Cl)cccc5OS(C)(=O)=O)C4)cs3)CC2)n1` (stereo not shown) [Compound 32, 3-chloro-2-(3-(2-(1-(2-((4-methoxypyrimidin-2-yl)oxy)acetyl)piperidin-4-yl)thiazol-4-yl)-4,5-dihydroisoxazol-5-yl)phenyl methanesulfonate], the inhibition of growth at 30 ppm in assay [1] is at least 70%. Also, the pest or weed control at 50 ppm in assay [2] was at least 70%.

Take `COc1ccnc(OCC(=O)N2CCC(c3nc(C4=NOC(c5c(Cl)cccc5Cl)C4)cs3)CC2)n1` (stereo not shown) [Compound 33, 1-(4-(4-(5-(2,6-dichlorophenyl)-4,5-dihydroisoxazol-3-yl)thiazol-2-yl)piperidin-1-yl)-2-((4-methoxypyrimidin-2-yl)oxy)ethan-1-one]: the inhibition of growth at 30 ppm in assay [1] was at least 70%. In addition, the pest or weed control at 50 ppm in assay [2] is at least 70%. Turning to `CS(=O)(=O)Oc1cccc(Cl)c1C1CC(c2csc(C3CCN(C(=O)COc4ccc(C(F)(F)F)nn4)CC3)n2)=NO1` (stereo not shown) [Compound 41, 3-chloro-2-(3-(2-(1-(2-((6-(trifluoromethyl)pyridazin-3-yl)oxy)acetyl)piperidin-4-yl)thiazol-4-yl)-4,5-dihydroisoxazol-5-yl)phenyl methanesulfonate], the inhibition of growth at 30 ppm in assay [1] is at least 70%. In addition, the pest or weed control at 50 ppm in assay [2] is at least 70%. Consider `O=C(COc1ccnc(C(F)(F)F)n1)N1CCC(c2nc(C3=NOC(c4c(F)cccc4Br)C3)cs2)CC1` (stereo not shown) [Compound 15, 1-(4-(4-(5-(2-bromo-6-fluorophenyl)-4,5-dihydroisoxazol-3-yl)thiazol-2-yl)piperidin-1-yl)-2-((2-(trifluoromethyl)pyrimidin-4-yl)oxy)ethan-1-one], for which the inhibition of growth at 30 ppm in assay [1] is at least 70%. In assay [2], the pest or weed control at 50 ppm was at least 70%. In the case of `COc1ccnc(OCC(=O)N2CCC(c3nc(C4=NOC(c5c(F)cccc5F)C4)cs3)CC2)n1` (stereo not shown) [Compound 36, 1-(4-(4-(5-(2,6-difluorophenyl)-4,5-dihydroisoxazol-3-yl)thiazol-2-yl)piperidin-1-yl)-2-((4-methoxypyrimidin-2-yl)oxy)ethan-1-one], the inhibition of growth at 30 ppm in assay [1] is at least 70%. Also, the pest or weed control at 50 ppm in assay [2] is at least 70%. On to `O=C(COc1ccc(C(F)(F)F)nn1)N1CCC(c2nc(C3=NOC(c4c(F)cccc4Br)C3)cs2)CC1` (stereo not shown) [Compound 43, 1-(4-(4-(5-(2-bromo-6-fluorophenyl)-4,5-dihydroisoxazol-3-yl)thiazol-2-yl)piperidin-1-yl)-2-((6-(trifluoromethyl)pyridazin-3-yl)oxy)ethan-1-one], for which the inhibition of growth at 30 ppm in assay [1] is at least 70%. In assay [2], the pest or weed control at 50 ppm is at least 70%. Regarding `COc1nccnc1OCC(=O)N1CCC(c2nc(C3=NOC(c4c(Cl)cccc4C#N)C3)cs2)CC1` (stereo not shown) [Compound 26, 3-chloro-2-(3-(2-(1-(2-((3-methoxypyrazin-2-yl)oxy)acetyl)piperidin-4-yl)thiazol-4-yl)-4,5-dihydroisoxazol-5-yl)benzonitrile], the inhibition of growth at 30 ppm in assay [1] was at least 70%. Also, the pest or weed control at 50 ppm in assay [2] was at least 70%. For the molecule `O=C(COc1nccnc1C(F)(F)F)N1CCC(c2csc(C3=NOC(c4c(Cl)cc(Cl)cc4Cl)C3)n2)CC1` (stereo not shown) [Compound 8, 1-(4-(2-(5-(2,4,6-trichlorophenyl)-4,5-dihydroisoxazol-3-yl)thiazol-4-yl)piperidin-1-yl)-2-((3-(trifluoromethyl)pyrazin-2-yl)oxy)ethan-1-one], the inhibition of growth at 30 ppm in assay [1] is at least 70%. In addition, in assay [2], the pest or weed control at 50 ppm is at least 70%.

For `O=C(COc1cc(C(F)(F)F)ncn1)N1CCC(c2nc(C3=NOC(c4c(F)cccc4Cl)C3)cs2)CC1` (stereo not shown) [Compound 9, 1-(4-(4-(5-(2-chloro-6-fluorophenyl)-4,5-dihydroisoxazol-3-yl)thiazol-2-yl)piperidin-1-yl)-2-((6-(trifluoromethyl)pyrimidin-4-yl)oxy)ethan-1-one], the inhibition of growth at 30 ppm in assay [1] is at least 70%. Further, the pest or weed control at 50 ppm in assay [2] was at least 70%. As to `O=C(COc1ccnc(C(F)(F)F)n1)N1CCC(c2nc(C3=NOC(c4c(F)cccc4F)C3)cs2)CC1` (stereo not shown) [Compound 17, 1-(4-(4-(5-(2,6-difluorophenyl)-4,5-dihydroisoxazol-3-yl)thiazol-2-yl)piperidin-1-yl)-2-((2-(trifluoromethyl)pyrimidin-4-yl)oxy)ethan-1-one], the inhibition of growth at 30 ppm in assay [1] was at least 70%. The pest or weed control at 50 ppm in assay [2] is at least 70%.

As for `O=C(COc1ccc(C(F)(F)F)nn1)N1CCC(c2nc(C3=NOC(c4c(F)cccc4F)C3)cs2)CC1` (stereo not shown) [Compound 42, 1-(4-(4-(5-(2,6-difluorophenyl)-4,5-dihydroisoxazol-3-yl)thiazol-2-yl)piperidin-1-yl)-2-((6-(trifluoromethyl)pyridazin-3-yl)oxy)ethan-1-one], the inhibition of growth at 30 ppm in assay [1] was at least 70%. Also, the pest or weed control at 50 ppm in assay [2] is at least 70%.

In the case of `COc1ccnc(OCC(=O)N2CCC(c3nc(C4=NOC(c5c(Cl)cc(Cl)cc5Cl)C4)cs3)CC2)n1` (stereo not shown) [Compound 35, 2-((4-methoxypyrimidin-2-yl)oxy)-1-(4-(4-(5-(2,4,6-trichlorophenyl)-4,5-dihydroisoxazol-3-yl)thiazol-2-yl)piperidin-1-yl)ethan-1-one], the pest or weed control at 50 ppm in assay [2] was at least 70%.

For the molecule `O=C(COc1cnc(C(F)(F)F)cn1)N1CCC(c2nc(C3=NOC(c4c(Cl)cccc4C(F)(F)F)C3)cs2)CC1` (stereo not shown) [Compound 69, 1-(4-(4-(5-(2-chloro-6-(trifluoromethyl)phenyl)-4,5-dihydroisoxazol-3-yl)thiazol-2-yl)piperidin-1-yl)-2-((5-(trifluoromethyl)pyrazin-2-yl)oxy)ethan-1-one], the inhibition of growth at 30 ppm in assay [1] is at least 70%.

Regarding `O=C(COc1ccc(C(F)(F)F)nn1)N1CCC(c2nc(C3=NOC(c4c(Cl)cccc4C(F)(F)F)C3)cs2)CC1` (stereo not shown) [Compound 66, 1-(4-(4-(5-(2-chloro-6-(trifluoromethyl)phenyl)-4,5-dihydroisoxazol-3-yl)thiazol-2-yl)piperidin-1-yl)-2-((6-(trifluoromethyl)pyridazin-3-yl)oxy)ethan-1-one], in assay [1], the inhibition of growth at 30 ppm is at least 70%. The same measure, in the same setting: the figure for `COc1nc(OC)nc(OCC(=O)N2CCC(c3nc(C4=NOC(c5c(Cl)cccc5Cl)C4)cs3)CC2)n1` (stereo not shown) [Compound 106, 1-(4-(4-(5-(2,6-dichlorophenyl)-4,5-dihydroisoxazol-3-yl)thiazol-2-yl)piperidin-1-yl)-2-((4,6-dimethoxy-1,3,5-triazin-2-yl)oxy)ethan-1-one] is at least 70%; for `COc1ncc(OCC(=O)N2CCC(c3nc(C4=NOC(c5c(F)cccc5Cl)C4)cs3)CC2)cn1` (stereo not shown) [Compound 132, 1-(4-(4-(5-(2-chloro-6-fluorophenyl)-4,5-dihydroisoxazol-3-yl)thiazol-2-yl)piperidin-1-yl)-2-((2-methoxypyrimidin-5-yl)oxy)ethan-1-one] it is at least 70%.

These data come from patent publication US12471596B2 (priority 2019, dated 2025).
